Source: patent publication US4923865A, “Substituted 1-(1H-imidazol-4-yl)alkyl-benzamides as anti-ischemics and as alpha-2-adrenergic receptor agonists” (U C B Societe Anonyme, priority 1988, dated 1990)
Read-outs that look alike come from different tables or passages of the source.

Tests used:
[1] = Diuretic activity in beagle dogs (urine excretion); type: in vivo; settings: for Mean relative increase in urine excretion: first three hours; for minimal effective dose: Canis lupus familiaris, iv, 3 h, i.v., read-out: minimum active dose that causes a statistically significant increase of the urine excretion
Protocol: 4. Diuretic activity. The diuretic activity of the compounds of the invention has been determined using beagle dogs (6 males and 6 females) be means of a 6-way randomized cross-over study.
The compounds to be studied are administered intravenously at increasing doses: 2, 6.5, 20, 65 and 200 μg/kg. During the first three hours following the injection, the volume of urine excreted is measured. Table VIII gives for compound A the mean relative increase in % of the volume of urine excreted with respect to the group of animals which have not received the compound.

cerebral ischemia = test: General and permanent cerebral ischemia in rat (ligature of the two common carotid arteries); type: in vivo, male Wistar rats; settings: 0.76 μg/kg (3.2 nmoles) i.p.; maximum score 17; control 12; P 0.005
Protocol: (a) General and permanent cerebral ischemia in rat. Male Wistar rats (200 to 250 g) are anesthetized by inhalation of halothane (1 to 5%) contained in a N2 O--O2 (70:30) mixture. The two common carotid arteries are ligatured simultaneously close to the passage between the internal carotid and external carotid using the method described by M. LE PONCIN-LAFITTE et al., J. Pharmacol. (Paris), 14, (1983), 99-102.
The compound to be tested is administered intraperitoneally for a first time 30 minutes before making the ligatures, and subsequently 30 minutes and 270 minutes after making the ligatures. On the next day, and on the day after the next, the neurological deficit in the surviving animals is evaluated by the method described by C. CAPDEVILLE et al., J. Pharmacol. (Paris), 15, (1984), 231-237, and by B. KOLB et al., Neurobehav. Toxicol. Teratol. 7, (1985), 71-78. […] Table III gives for compound A, administered intraperitoneally at a dose of 0.76 μg/kg (3.2 nmoles), the mean of the neurological scores determined for the whole group of surviving animals of the control group and of the treated group, as recorded two days after the ligatures. The statistical significance (P) of the difference observed between these mean values is evaluated by the Mann-Whitney test.

[2] = system: stenosis at the level of a coronary artery; test: Effort trial on a moving belt in dogs with coronary artery stenosis; type: in vivo, dog; settings: dose 0.018 μmole/kg i.v.; maximum effort at 12 Km/h for 1 minute
Protocol: (b) Effort trial on a moving belt. In this test, a group of at least four dogs is used (equipped with intracardiac electrodes), the dogs having an organic stenosis at the level of a coronary artery. This stenosis causes imbalance between the demand and supply of oxygen when the animal is required to make an effort. This imbalance is expressed on the electrocardiogram by an increase in the ST-segment.
In the trial, the dog runs at a speed of 12 km/h on a moving belt having a slope of 15°. This maximum effort is required for one minute. During the trial, the increase in the ST-segment is recorded, together with the natural increase in the pulse rate. The experiment is repeated at least four times, and the mean of the values obtained is taken as reference (100%) for the group of animals. The animals are then allowed to rest for a minimum of 24 hours before being subjected to a new effort trial under the influence of the compound to be studied.
The compound to be studied is administered slowly (over 1 minute) by intravenous injection 5 minutes before the new effort trial. In the course of the latter, the variations in the same parameters are recorded.

[3] = biological target: T1, presynaptic α2 -adrenergic receptors (Cavia porcellus, UniProt Q60474); test: Inhibition of the contraction of electrically stimulated guinea-pig ileum
T1 construct: Stimulation of a guinea-pig ileum; from tissue; host or cells: guinea-pig ileum longitudinal muscle strips
T1 sequence (Q60474 1-464): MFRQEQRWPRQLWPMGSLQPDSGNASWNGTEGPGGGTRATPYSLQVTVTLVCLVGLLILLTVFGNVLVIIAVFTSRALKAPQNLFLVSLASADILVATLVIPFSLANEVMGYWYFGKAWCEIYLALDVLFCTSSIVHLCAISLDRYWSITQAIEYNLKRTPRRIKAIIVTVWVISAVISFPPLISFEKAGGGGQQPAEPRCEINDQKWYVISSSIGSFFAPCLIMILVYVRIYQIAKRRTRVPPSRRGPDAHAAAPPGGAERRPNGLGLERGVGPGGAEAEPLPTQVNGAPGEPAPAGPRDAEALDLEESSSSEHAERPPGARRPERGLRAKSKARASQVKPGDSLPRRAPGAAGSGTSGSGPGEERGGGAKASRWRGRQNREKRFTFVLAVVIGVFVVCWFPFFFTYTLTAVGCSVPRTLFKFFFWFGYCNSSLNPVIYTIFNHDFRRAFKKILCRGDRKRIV
Description: (c) Stimulation of a guinea-pig ileum. Longitudinal muscles strips attached to an isometric strain gauge are suspended in Tyrode's solution and are stretched under a tension of 1 g (G. M. DREW. Brit. J. Pharmacol. 64, (1978), 293-300; M. ANDREJAK et al., Naunyn-Schmiedelberg's Arch. Pharmacol. 314, (1980), 83-87).
Electrical stimulation of the parasympathetic nerves associated with the ileum fragments causes a contraction of the muscle. This contraction is reduced in the presence of a presynaptic α2 -agonist and the magnitude by which the contraction is reduced depends on the concentration of the agonist used. This effect is antagonized by the simultaneous presence of an α2 -antagonist such as α-yohimbine. The compounds to be studied have been tested at increasing concentrations ranging from 10^-10 to 10^-3 mole/l.
The concentration (IC50 in mole/l) that reduces by 50% the intensity of the contraction of the muscle is determined.
In the presence of α-yohimbine at a concentration of 10^-6 mole/l, the concentration of the compounds A or B, for example, that is required for reducing muscle contraction intensity by 50% is higher, and becomes greater than 10^-6 mole/l, which gives additional confirmation that the compounds of the invention act really at the level of the presynaptic α2 -adrenergic receptors.

SMILES: Cl.NC(=O)c1cccc(Cc2c[nH]cn2)c1O [A, 2-hydroxyl-3-[(1H-imidazol-4-yl)methyl]-benzamide hydrochloride]
- Mean relative increase in urine excretion ([1]; 2 μg/kg i.v., females, P < 0.05): 74%
- Mean relative increase in urine excretion ([1]; 2 μg/kg i.v., males): 25%
- Mean relative increase in urine excretion ([1]; 6.5 μg/kg i.v., females, P < 0.01): 291%
- Mean relative increase in urine excretion ([1]; 6.5 μg/kg i.v., males, P < 0.05): 122%
- Mean relative increase in urine excretion ([1]; 20 μg/kg i.v., females, P < 0.01): 531%
- Mean relative increase in urine excretion ([1]; 20 μg/kg i.v., males, P < 0.01): 383%
- Mean relative increase in urine excretion ([1]; 65 μg/kg i.v., females, P < 0.01): 804%
- Mean relative increase in urine excretion ([1]; 65 μg/kg i.v., males, P < 0.01): 345%
- Mean relative increase in urine excretion ([1]; 200 μg/kg i.v., females, P < 0.01): 988%
- Mean relative increase in urine excretion ([1]; 200 μg/kg i.v., males, P < 0.01): 412%
- minimal effective dose ([1]; females): ≤ 2 µg/kg
- minimal effective dose ([1]; males): ≤ 6.5 µg/kg
- Neurological scores after 2 days (cerebral ischemia): 15
- reduction in ST-segment [2]: 74%
- reduction in the pulse rate [2]: 3 beats/min.
- IC50 ([3]; guinea-pig ileum, electrical stimulation, read-out: IC50 (reduces by 50% the intensity of the contraction of the muscle)): 7 nM
- IC50 ([3]; in the presence of 10^-6 mole/l of α-yohimbine, read-out: concentration required for reducing muscle contraction intensity by 50%): > 1000 nM
